Measurements reported in US7138411B2, “Substituted benzopyran derivatives for the treatment of inflammation” (G.D. Searle & Co., priority 1997, dated 2006).

Experiments:
[1] = target: T1, COX-2 (UniProt P35354); assay: Fast assay for COX-2 activity (PGE2 ELISA); assay type: biochemical, human or murine; details: fast assay: 10 min pre-incubation at 25° C., reaction stopped after two minutes, pH 7.5
T1 sequence (P35354 1-604): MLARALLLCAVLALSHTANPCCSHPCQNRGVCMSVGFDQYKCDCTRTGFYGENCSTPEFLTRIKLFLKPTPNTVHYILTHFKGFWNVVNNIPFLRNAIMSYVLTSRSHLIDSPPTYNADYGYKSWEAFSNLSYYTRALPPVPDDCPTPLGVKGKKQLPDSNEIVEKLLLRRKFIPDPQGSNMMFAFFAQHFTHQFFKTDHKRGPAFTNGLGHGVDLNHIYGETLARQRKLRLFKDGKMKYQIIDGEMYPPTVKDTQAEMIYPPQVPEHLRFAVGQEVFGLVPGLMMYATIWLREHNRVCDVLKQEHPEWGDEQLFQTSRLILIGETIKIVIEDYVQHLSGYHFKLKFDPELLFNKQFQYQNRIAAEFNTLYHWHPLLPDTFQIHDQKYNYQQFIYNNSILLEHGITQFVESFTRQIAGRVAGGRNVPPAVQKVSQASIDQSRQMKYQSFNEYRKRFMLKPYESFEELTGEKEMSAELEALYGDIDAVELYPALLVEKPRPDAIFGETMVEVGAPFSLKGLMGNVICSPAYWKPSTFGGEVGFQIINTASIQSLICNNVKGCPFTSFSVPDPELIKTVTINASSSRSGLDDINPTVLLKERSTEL

[2] = Analgesia (Table I); assay type: in vivo; set-up: inhibition in vivo: dose or concentration left out as unconfirmed; details: read-out: ANALGESIA % Inhibition; for inhibition in vivo at 10 mg/kg: @ 10 mpk (values marked *)
[3] = system: carrageenan foot edema; assay: Rat carrageenan foot pad edema test; assay type: in vivo, Male Sprague-Dawley rats; set-up: inhibition in vivo: dose or concentration left out as unconfirmed; details: po, 3 h, dosed orally, foot volume three hours after carrageenan, read-out: RAT PAW EDEMA % Inhibition; for inhibition in vivo at 10 mg/kg: @ 10 mpk (values marked *)
Experimental: Rat Carrageenan Foot Pad Edema Test
Male Sprague-Dawley rats were selected in each group so that the average body weight was as close as possible. Rats were fasted with free access to water for over sixteen hours prior to the test. The rats were dosed orally (1 mL) with compounds suspended in vehicle containing 0.5% methylcellulose and 0.025% surfactant, or with vehicle alone. One hour later a subplantar injection of 0.1 mL of 1% solution of carrageenan/sterile 0.9% saline was administered and the volume of the injected foot was measured with a displacement plethysmometer connected to a pressure transducer with a digital indicator. Three hours after the injection of the carrageenan, the volume of the foot was again measured. The average foot swelling in a group of drug-treated animals was compared with that of a group of placebo-treated animals and the percentage inhibition of edema was determined (Otterness and Bliven, Laboratory Models for Testing NSAIDs, in Non-steroidal Anti-Inflammatory Drugs, (J. Lombardino, ed. 1985)).

[4] = target: COX-1 (UniProt P23219); assay: Assay for COX-1 activity (PGE2 ELISA); details: read-out: COX-1 IC50; 10–20 minutes pre-incubation, reaction stopped after ten minutes, pH 8.0
[5] = target: T1, COX-2; assay: Assay for COX-2 activity (PGE2 ELISA); details: read-out: COX-2 IC50; 10–20 minutes pre-incubation, reaction stopped after ten minutes, pH 8.0

IC50 [1] [nM] | IC50 [4] [nM] | melting point [°C] | IC50 [5] [nM] | Structure (SMILES) | inhibition in vivo [2] [%] | inhibition in vivo [3] [%] | inhibition in vivo at 10 mg/kg [2] [%] | inhibition in vivo at 10 mg/kg [3] [%]
300 |  |  |  | O=C(O)C1=Cc2cc(Cl)ccc2OC1C(F)(F)F (stereo not drawn) [Example 1, 6-Chloro-2-trifluoromethyl-2H-1-benzopyran-3-carboxylic acid] | 58 | 57 |  | 
 |  |  |  | CC(C)(C)c1cc2c(cc1Cl)C=C(C(=O)O)C(C(F)(F)F)O2 (stereo not drawn) [Example 8, 6-Chloro-7-(1,1-dimethylethyl)-2-trifluoromethyl-2H-1-benzopyran-3-carboxylic acid] | 36 | 43 |  | 
7000 |  |  |  | CC(C)(C)c1ccc2c(c1)OC(C(F)(F)F)C(C(=O)O)=C2 (stereo not drawn) [Example 12, 7-(1,1-Dimethylethyl)-2-trifluoromethyl-2H-1-benzopyran-3-carboxylic acid] | 37 | 30 |  | 
 | 51000 |  |  | O=C(O)C1=Cc2cc(OC(F)(F)F)ccc2OC1C(F)(F)F (stereo not drawn) [Example 16, 6-Trifluoromethoxy-2-trifluoromethyl-2H-1-benzopyran-3-carboxylic acid] | 34 | 48 |  | 
 |  | 168 to 170 |  | O=C(O)C1=Cc2cc(I)ccc2OC1C(F)(F)F (stereo not drawn) [Example 24, 6-Iodo-2-trifluoromethyl-2H-1-benzopyran-3-carboxylic acid] | 25 | 29 |  | 
< 100 |  |  |  | O=C(O)C1=Cc2cc(Cl)c(Cl)cc2OC1C(F)(F)F (stereo not drawn) [Example 31, 6,7-Dichloro-2-trifluoromethyl-2H-1-benzopyran-3-carboxylic acid] |  |  | 37 | 39
 |  |  |  | O=C(O)C1=Cc2cc(Cl)cc(Cl)c2OC1C(F)(F)F (stereo not drawn) [Example 32, 6,8-Dichloro-2-trifluoromethyl-2H-1-benzopyran-3-carboxylic acid] |  |  | 73 | 59
 | 57000 |  |  | Cc1cc(Cl)cc2c1OC(C(F)(F)F)C(C(=O)O)=C2 (stereo not drawn) [Example 38, 6-Chloro-8-methyl-2-trifluoromethyl-2H-1-benzopyran-3-carboxylic acid] | 55 | 47 |  | 
 | > 100000 |  |  | Cc1cc(Cl)c2c(c1)C=C(C(=O)O)C(C(F)(F)F)O2 (stereo not drawn) [Example 39, 8-Chloro-6-methyl-2-trifluoromethyl-2H-1-benzopyran-3-carboxylic acid] | 8 | 18 |  | 
200 | 43000 | 190.8 to 193 | 74000 | O=C(O)C1=Cc2cc(Cl)cc(F)c2OC1C(F)(F)F (stereo not drawn) [Example 46, 6-Chloro-8-fluoro-2-trifluoromethyl-2H-1-benzopyran-3-carboxylic acid] | 67 | 59 |  | 
< 100 |  | 188.8 to 198.7 |  | O=C(O)C1=Cc2cc(Cl)ccc2SC1C(F)(F)F (stereo not drawn) [Example 65, 6-Chloro-2-trifluoromethyl-2H-1-benzothiopyran-3-carboxylic acid] | 32 | 43 |  | 
 |  | 185.1 to 186.1 |  | N#Cc1ccc2c(c1)C=C(C(=O)O)C(C(F)(F)F)O2 (stereo not drawn) [Example 79, 6–Cyano-2-(trifluoromethyl)-2H-1-benzopyran-3-carboxylic acid] | 53 | 45 |  | 
< 100 | 1600 |  | < 100 | O=C(O)C1=Cc2cc(C(F)F)ccc2OC1C(F)(F)F (stereo not drawn) [Example 81, 6-(Difluoromethyl)-2-(trifluoromethyl)-2H-1-benzopyran-3-carboxylic acid] | 44 | 36 |  | 
< 100 | 1400 |  | < 100 | O=C(O)C1=Cc2c(cc(Cl)c(Cl)c2Cl)OC1C(F)(F)F (stereo not drawn) [Example 83, 5,6,7-Trichloro-2-(trifluoromethyl)-2H-1-benzopyran-3-carboxylic acid] | 65 | 56 |  | 
 | 2800 |  | < 100 | O=C(O)C1=Cc2cc(Cl)c(Cl)c(Cl)c2OC1C(F)(F)F (stereo not drawn) [Example 84, 6,7,8-Trichloro-2-(trifluoromethyl)-2H-1-benzopyran-3-carboxylic acid] | 24 | 44 |  | 
 |  | 198 to 200 |  | C#Cc1ccc2c(c1)C=C(C(=O)O)C(C(F)(F)F)O2 (stereo not drawn) [Example 139, 6-(Ethynyl)-2-(trifluoromethyl)-2H-1-benzopyran-3-carboxylic acid] | 41 | 42 |  | 
 |  |  |  | O=C(O)C1=Cc2cc(Cl)ccc2NC1C(F)(F)F (stereo not drawn) [Example 157, 6-Chloro-1,2-dihydro-2-(trifluoromethyl)-3-quinolinecarboxylic acid] |  |  | 36 | 44
 |  |  |  | O=C(O)C1=Cc2cc(Cl)cc(Cl)c2NC1C(F)(F)F (stereo not drawn) [Example 158, 6,8-Dichloro-1,2-dihydro-2-(trifluoromethyl)-3-quinolinecarboxylic acid] |  |  | 55 | 45
 |  |  |  | O=C(O)C1=Cc2cc(Br)ccc2NC1C(F)(F)F (stereo not drawn) [Example 161, 6-Bromo-1,2-dihydro-2-(trifluoromethyl)-3-quinolinecarboxylic acid] | 56 | 53 |  | 
 |  | 208 to 209 |  | CN1c2ccc(Cl)cc2C=C(C(=O)O)C1C(F)(F)F (stereo not drawn) [Example 165, 6-Chloro-1,2-dihydro-1-methyl-2-(trifluoromethyl)-3-quinolinecarboxylic acid] |  |  | 33 | 30
 |  |  |  | O=C(O)C1=Cc2cc(Cl)ccc2N[C@@H]1C(F)(F)F [Example 172, (S)-6-chloro-1,2-dihydro-2-(trifluoromethyl)-3-quinolinecarboxylic acid] | 67 | 57 |  | 
< 100 | 12400 | 191.9 to 193.1 | < 100 | O=C(O)C1=Cc2cc(Cl)c(Oc3ccc(F)c(F)c3)cc2OC1C(F)(F)F (stereo not drawn) [Example 198, 6-Chloro-7-(3,4-difluorophenoxy)-2-(trifluoromethyl)-2H-1-benzopyran-3-carboxylic acid] |  |  |  | 
< 100 | 28500 | 213.4 to 216.2 | < 100 | O=C(O)C1=Cc2cc(Cl)c(Oc3cccnc3Cl)cc2OC1C(F)(F)F (stereo not drawn) [Example 200, 6-Chloro-7-[(2-chloro-3-pyridinyl)oxy]-2-(trifluoromethyl)-2H-1-benzopyran-3-carboxylic acid] |  |  |  | 
< 100 | 63800 | 237.8 to 238.8 | 100 | O=C(O)C1=Cc2cc(Cl)c(Oc3cccnc3)cc2OC1C(F)(F)F (stereo not drawn) [Example 201, 6-Chloro-7-[3-pyridinyloxy]-2-(trifluoromethyl)-2H-1-benzopyran-3-carboxylic acid] |  |  |  | 
200 | > 100000 | 174.4 to 176 | > 100000 | O=C(O)C1=Cc2cc(Cl)c(OCC(F)(F)F)cc2OC1C(F)(F)F (stereo not drawn) [Example 209] |  |  |  | 
1700 | > 100000 | 259 to 268 | 10000 | C#Cc1ccc2c(c1)C=C(C(=O)O)C(C(F)(F)F)N2 (stereo not drawn) [Example 210, 1,2-Dihydro-6-ethynyl-2-(trifluoromethyl)-3-quinolinecarboxylic acid] |  |  |  | 
1900 | 3800 | 218 to 219 | 2400 | O=C(O)C1=Cc2cc(C#Cc3ccccc3)ccc2NC1C(F)(F)F (stereo not drawn) [Example 211, 1,2-Dihydro-6-(phenylethynyl)-2-(trifluoromethyl)-3-quinolinecarboxylic acid] |  |  |  | 
